In patent publication US20150111833A1, “Method Of Treating An Ocular Disease And Compositions Effective For Treating An Ocular Disease” (Howard University, priority 2012, published 2015):

System: endophthalmitis
Experiment: Combination therapy treatment of severe endophthalmitis in a human subject (case report)
Assay type: in vivo
Details: initial regimen without cyclosporin A: intravitreal Vancomycin and Ceftazidime, then Ceftazidime, Vancomycin and Prednisolone eye drops every two hours; over the next two days
Description: A uniocular subject was diagnosed with severe endophthalmitis in their only functioning eye. […] The subject was treated with an aggressive treatment regimen of antibiotics (Intra Vitreal injection of Vancomycin and Ceftazidime) followed by Ceftazidime eye drops. Vancomycin eye drops and steroid Prednisolone eye drops every two hours.
Cyclosporin A (sold as […]® from Allergan, Inc.) was added to the treatment regimen and was administered prior to administering the antibiotic and steroid eye drops.
The Ceftriaxone was added to the regimen to increase the aggressiveness of the therapy with the goal of preventing or eliminating any traces of infection in the retina, which can result in irreversible blindness.

Structure (SMILES) | improvement of the subject
CC(C)(O/N=C(\C(=O)N[C@@H]1C(=O)N2C(C(=O)[O-])=C(C[n+]3ccccc3)CS[C@H]12)c1csc(N)n1)C(=O)O [Ceftazidime] | no improvement
C[C@]12C=CC(=O)C=C1CC[C@@H]1[C@@H]2[C@@H](O)C[C@@]2(C)[C@H]1CC[C@]2(O)C(=O)CO [Prednisolone] | no improvement
CN[C@H](CC(C)C)C(=O)N[C@H]1C(=O)N[C@@H](CC(N)=O)C(=O)N[C@H]2C(=O)N[C@H]3C(=O)N[C@H](C(=O)N[C@H](C(=O)O)c4cc(O)cc(O)c4-c4cc3ccc4O)[C@H](O)c3ccc(c(Cl)c3)Oc3cc2cc(c3O[C@@H]2O[C@H](CO)[C@@H](O)[C@H](O)[C@H]2O[C@H]2C[C@](C)(N)[C@H](O)[C@H](C)O2)Oc2ccc(cc2Cl)[C@H]1O [Vancomycin] | no improvement
